Marks after values point to notes of the source that are not given here.
Columns and labels:
MT2 = settings: cited from earlier work
MT1 = settings: cited from earlier work
human MT2 receptor [1] = biological target: T1, human MT2 receptor (Homo sapiens, UniProt P49286); experiment: 2-[125I]iodomelatonin competition binding, human MT2 in NIH3T3 cell membranes; settings: 2-[125I]iodomelatonin 100 pM, 90 min 37 °C; Cheng-Prusoff; mean of at least three determinations in duplicate; read-out: hMT2 pKi (±SD) (converted)
T1 construct: expressed in transfected cells; host or cells: NIH3T3 fibroblast cells, stably transfected; membranes used
T1 sequence (P49286 1-362): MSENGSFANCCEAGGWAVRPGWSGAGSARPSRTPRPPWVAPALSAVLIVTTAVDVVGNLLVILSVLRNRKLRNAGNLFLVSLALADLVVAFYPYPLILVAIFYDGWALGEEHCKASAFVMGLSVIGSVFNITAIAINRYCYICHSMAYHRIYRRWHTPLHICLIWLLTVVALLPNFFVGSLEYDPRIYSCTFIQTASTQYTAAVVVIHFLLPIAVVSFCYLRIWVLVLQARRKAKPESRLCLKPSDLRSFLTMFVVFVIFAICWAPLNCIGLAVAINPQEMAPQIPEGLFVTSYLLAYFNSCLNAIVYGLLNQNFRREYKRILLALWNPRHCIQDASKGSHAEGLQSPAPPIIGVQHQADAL
Protocol: (§1) The newly synthesized alpha- and beta-methyl N-anilinoethylamides were evaluated for their binding affinity at human MT1 and MT2 receptors stably transfected in NIH3T3 cells using 2-[^125I]iodomelatonin as radiolabelled ligand.
(§2) Binding affinities were determined using 2- [^125I]iodomelatonin as the labeled ligand in competition experiments on cloned human MT1 and MT2 receptors expressed in NIH3T3 […] fibroblast cells. The characterization of NIH3T3-MT1 and -MT2 cells had been already described in detail. Membranes were incubated for 90 min at 37 °C in binding buffer (Tris-HCl, 50 mM, pH 7.4). The final membrane concentration was 5−10 μg of protein per tube. The membrane protein level was determined in accordance with a previously reported method. […] The pKi values were calculated from the IC50 values in accordance with the Cheng−Prusoff equation [21]. The pKi values are the mean of at least three independent determinations performed in duplicate.

human MT1 receptor [2] = biological target: T2, human MT1 receptor (Homo sapiens, UniProt P48039); settings: relative to melatonin; cited from earlier work
T2 construct: expressed in transfected cells; host or cells: NIH3T3 fibroblast cells, stably transfected; membranes used

human MT1 receptor [3] = biological target: T2, human MT1 receptor; experiment: 2-[125I]iodomelatonin competition binding, human MT1 in NIH3T3 cell membranes; settings: 2-[125I]iodomelatonin 100 pM, 90 min 37 °C; Cheng-Prusoff; mean of at least three determinations in duplicate; read-out: hMT1 pKi (±SD) (converted)
Protocol: as §1, §2

human MT2 receptor [4] = biological target: T1, human MT2 receptor; settings: relative to melatonin; cited from earlier work

T2 sequence (P48039 whole entry): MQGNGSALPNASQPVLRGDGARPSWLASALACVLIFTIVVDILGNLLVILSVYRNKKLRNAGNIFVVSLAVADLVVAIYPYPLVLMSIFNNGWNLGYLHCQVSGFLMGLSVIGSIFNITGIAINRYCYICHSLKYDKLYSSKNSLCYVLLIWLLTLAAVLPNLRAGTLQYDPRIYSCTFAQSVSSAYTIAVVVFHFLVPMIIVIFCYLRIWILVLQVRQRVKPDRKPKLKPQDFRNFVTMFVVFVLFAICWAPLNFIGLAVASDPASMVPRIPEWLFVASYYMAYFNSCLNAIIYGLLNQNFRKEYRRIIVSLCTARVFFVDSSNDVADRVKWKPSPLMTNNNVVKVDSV

COc1cc2c([C@@H](C)CNC(C)=O)c[nH]c2cc1Cl [TIK-301, (R)-β-methyl-6-chloro-melatonin]
Ki (MT2): 0.042 nM | Ki (MT1): 0.081 nM

CCC(=O)NC[C@H](CO)c1cccc2ccc(OC)cc12 [compound 1, (R)-N-[3-hydroxy-2-(7-methoxynaphthalen-1-yl)propyl]propanamide]
pKi(MT2) (MT2): 9.50 | pKi(MT1) (MT1): 8.47

COc1cccc(O[C@@H](C)CNC(C)=O)c1 [compound 2, (S)-N-[2-(3-methoxyphenoxy)propyl]acetamide]
pKi(MT2) (MT2): 8.33 | pKi(MT1) (MT1): 8.77

COc1cccc(N(C)CCNC(C)=O)c1 [compound 3, N-{2-[(3-methoxyphenyl)methylamino]ethyl}acetamide]
Ki (human MT2 receptor [1]): 2.24 nM | hMT1 IA, relative intrinsic activity (human MT1 receptor [2]): 0.95 ^c | Ki (human MT1 receptor [3]): 1.74 nM | hMT2 IA, relative intrinsic activity (human MT2 receptor [4]): 1.06 ^c
